The subject of one test is USA 300 strain of MRSA. Put plainly: MIC by broth microdilution, USA 300 strain of MRSA. It counts as cell-based, Staphylococcus aureus. As to conditions: Staphylococcus aureus, multiple values when multiple MIC assays were conducted, read-out: MIC USA300. The method, then:
Minimum inhibitory concentrations were determined using the quality control strain S. aureus ATCC 29213 (Table 1) by the broth microdilution method according to guidelines of the Clinical and Laboratory Standards Institute (CLSI) (Cockerill, F. R.; et al., 2012, Methods for dilution antimicrobial susceptibility tests for bacteria that grow aerobically; approved standard-ninth edition. MA07-A9. Clinical and Laboratory Standard Institute, Wayne, Pa.). […] MICs for selected compounds were also determined using a USA 300 strain of MRSA (Hidron, et al., Lancet Infect. Dis. 2009, 9:384-392). Vancomycin was used as an additional control.
On the technique in general: In broth dilution the organism is exposed to a series of concentrations in liquid medium.

For another test, the system named is S. aureus ATCC 29213. As to the kind of experiment: MIC by broth microdilution (CLSI), quality control strain S. aureus ATCC 29213. It counts as cell-based, Staphylococcus aureus. As to conditions: multiple values when multiple MIC assays were conducted; for MIC: Staphylococcus aureus, ATCC29213, S. aureus ATCC 29213. The protocol:
Minimum inhibitory concentrations were determined using the quality control strain S. aureus ATCC 29213 (Table 1) by the broth microdilution method according to guidelines of the Clinical and Laboratory Standards Institute (CLSI) (Cockerill, F. R.; et al., 2012, Methods for dilution antimicrobial susceptibility tests for bacteria that grow aerobically; approved standard-ninth edition. MA07-A9. Clinical and Laboratory Standard Institute, Wayne, Pa.). […] Published quality control ranges for gepotidacin and ciprofloxacin were used to validate each assay. MICs for selected compounds were also determined using a USA 300 strain of MRSA (Hidron, et al., Lancet Infect. Dis. 2009, 9:384-392). Vancomycin was used as an additional control.

The target of test [1] is T1, Staphylococcus aureus gyrase (Staphylococcus aureus, UniProt P0A0K8+P20831).
T1 construct: purchased Inspiralis, Norwich, UK
Put plainly: Staphylococcus aureus gyrase supercoiling assay. It counts as biochemical. The note with it: S. aureus DNA gyrase supercoiling; read-out: Gyrase IC50. The protocol: (§1) A subset of analogs was used to assess the degree of inhibition of DNA gyrase or TopoIV (Inspiralis, Norwich, UK), both to establish the mechanism of action and to evaluate the relative balance of inhibitory activities (Table 1). A subset of compound was also assayed to determine the degree of inhibition of human topoisomerase II (Inspiralis, Norwich, UK)).
(§2) In all experiments, the activity of the enzymes was determined prior to the testing of the compounds and 1 unit (U) was defined as the amount of enzyme required to just fully supercoil, relax or decatenate the substrate (see explanation of gels). This amount of enzyme was initially used in determination of control inhibitor activity. These experiments were performed in duplicate.
(§3) For all assays the final DMSO concentration was 1%. 10 mM stocks of the compounds were serially diluted into 10% DMSO at 1 mM, 0.5 mM, 0.25 mM, 0.1 mM, 0.05 mM, 0.01 mM, 0.005 mM, 0.001 mM, 0.0005 mM, 0.0001 mM and 0.00005 mM. 3.0 μl of each dilution was added to a 30 μl assay.
(§4) Bands were visualised by ethidium staining for 20 minutes and destaining for 20 minutes. Gels were scanned using documentation equipment (GeneGenius, Syngene, Cambridge, UK) and % inhibition levels (where appropriate) were obtained with gel scanning software. (GeneTools, Syngene, Cambridge, UK)
Staphylococcus aureus gyrase supercoiling
1 U of DNA gyrase was incubated with 0.5 μg of relaxed pBR322 DNA in a 30 μl reaction at 37° C. for 30 minutes under the following conditions: 40 mM HEPES. KOH (pH 7.6), 10 mM magnesium acetate, 10 mM DTT, 2 mM ATP, 500 mM potassium glutamate and 0.05 mg/ml BSA.
Each reaction was stopped by the addition of 30 μl chloroform/iso-amyl alcohol (26:1) and 30 μl Stop Dye (40% sucrose (w/v), 100 mM Tris.HCl (pH 7.5), 10 mM EDTA, 0.5 μg/ml bromophenol blue), before being loaded on a 1.0% TAE gel run at 70V for 2 hours.

For a further test, the target named is T2, human topo II (Homo sapiens, UniProt P11388).
T2 construct: purchased Inspiralis, Norwich, UK
As to the kind of experiment: Topoisomerase II (alpha) decatenation assay. The note with it: activity remaining at 100 μM compound; read-out: hTopoll (% activity remaining at 100 μM). It counts as biochemical. The protocol:
as §1, §2, §3, §4
Topoisomerase II (Alpha) Decatenation Assay
Each reaction was stopped by the addition of 30 μl chloroform/iso-amyl alcohol (26:1) and 30 μl Stop Dye, before being loaded on a 1.0% TAE gel run at 90V for 2 hours.

The values below come from patent publication US11352349B2, “Type II topoisomerase inhibitors and methods of making and using thereof” (Ohio State Innovation Foundation, priority 2017, dated 2022).

Structures are written as SMILES. pIC50: −log10 of the molar value. In brackets after ≈: the same amount, converted by molar mass.

The MIC is the lowest concentration that inhibits growth of the organism. Broadly, the pIC50 is −log10 of the IC50, conventionally taken in molar units. What is called remaining activity is the activity still measured, relative to the control.

T1 sequence (P20831 whole entry): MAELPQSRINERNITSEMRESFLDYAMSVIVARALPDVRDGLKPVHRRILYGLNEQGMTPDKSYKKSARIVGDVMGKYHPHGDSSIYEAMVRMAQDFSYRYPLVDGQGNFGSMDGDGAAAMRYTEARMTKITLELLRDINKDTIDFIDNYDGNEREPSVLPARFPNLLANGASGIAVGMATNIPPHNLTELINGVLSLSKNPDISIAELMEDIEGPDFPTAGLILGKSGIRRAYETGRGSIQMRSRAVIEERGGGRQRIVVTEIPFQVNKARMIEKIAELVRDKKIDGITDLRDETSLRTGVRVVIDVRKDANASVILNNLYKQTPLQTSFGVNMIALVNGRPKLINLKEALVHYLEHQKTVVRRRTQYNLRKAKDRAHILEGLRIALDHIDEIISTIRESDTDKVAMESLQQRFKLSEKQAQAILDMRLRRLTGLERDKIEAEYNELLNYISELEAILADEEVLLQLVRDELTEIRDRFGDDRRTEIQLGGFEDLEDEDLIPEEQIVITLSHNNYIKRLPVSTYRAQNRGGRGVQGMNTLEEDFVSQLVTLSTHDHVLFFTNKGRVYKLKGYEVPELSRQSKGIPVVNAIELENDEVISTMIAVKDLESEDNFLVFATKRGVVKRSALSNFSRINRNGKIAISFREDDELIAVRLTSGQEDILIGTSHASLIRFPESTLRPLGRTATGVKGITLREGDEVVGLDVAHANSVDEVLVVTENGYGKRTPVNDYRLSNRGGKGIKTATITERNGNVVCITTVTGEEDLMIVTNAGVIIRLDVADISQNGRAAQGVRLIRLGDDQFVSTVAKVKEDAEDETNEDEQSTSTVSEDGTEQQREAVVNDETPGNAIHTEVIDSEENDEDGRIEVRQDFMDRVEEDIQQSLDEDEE
T1 sequence (P0A0K8 whole entry): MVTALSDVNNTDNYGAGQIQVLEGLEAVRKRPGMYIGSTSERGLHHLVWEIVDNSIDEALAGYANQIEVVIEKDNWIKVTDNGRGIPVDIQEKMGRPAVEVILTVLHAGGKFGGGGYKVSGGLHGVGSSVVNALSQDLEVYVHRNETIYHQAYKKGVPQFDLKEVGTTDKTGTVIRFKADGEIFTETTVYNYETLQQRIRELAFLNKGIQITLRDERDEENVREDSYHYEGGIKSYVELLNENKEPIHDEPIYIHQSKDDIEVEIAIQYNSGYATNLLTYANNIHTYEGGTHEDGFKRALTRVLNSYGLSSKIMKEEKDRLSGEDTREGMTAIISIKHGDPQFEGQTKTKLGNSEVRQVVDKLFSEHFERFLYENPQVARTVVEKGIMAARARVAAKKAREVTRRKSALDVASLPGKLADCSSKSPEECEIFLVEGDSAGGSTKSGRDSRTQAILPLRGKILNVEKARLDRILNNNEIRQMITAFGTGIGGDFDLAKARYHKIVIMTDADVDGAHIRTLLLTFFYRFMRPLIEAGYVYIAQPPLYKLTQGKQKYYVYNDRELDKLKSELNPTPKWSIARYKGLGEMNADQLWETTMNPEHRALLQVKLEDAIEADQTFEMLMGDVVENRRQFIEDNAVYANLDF
T2 sequence (P11388 whole entry): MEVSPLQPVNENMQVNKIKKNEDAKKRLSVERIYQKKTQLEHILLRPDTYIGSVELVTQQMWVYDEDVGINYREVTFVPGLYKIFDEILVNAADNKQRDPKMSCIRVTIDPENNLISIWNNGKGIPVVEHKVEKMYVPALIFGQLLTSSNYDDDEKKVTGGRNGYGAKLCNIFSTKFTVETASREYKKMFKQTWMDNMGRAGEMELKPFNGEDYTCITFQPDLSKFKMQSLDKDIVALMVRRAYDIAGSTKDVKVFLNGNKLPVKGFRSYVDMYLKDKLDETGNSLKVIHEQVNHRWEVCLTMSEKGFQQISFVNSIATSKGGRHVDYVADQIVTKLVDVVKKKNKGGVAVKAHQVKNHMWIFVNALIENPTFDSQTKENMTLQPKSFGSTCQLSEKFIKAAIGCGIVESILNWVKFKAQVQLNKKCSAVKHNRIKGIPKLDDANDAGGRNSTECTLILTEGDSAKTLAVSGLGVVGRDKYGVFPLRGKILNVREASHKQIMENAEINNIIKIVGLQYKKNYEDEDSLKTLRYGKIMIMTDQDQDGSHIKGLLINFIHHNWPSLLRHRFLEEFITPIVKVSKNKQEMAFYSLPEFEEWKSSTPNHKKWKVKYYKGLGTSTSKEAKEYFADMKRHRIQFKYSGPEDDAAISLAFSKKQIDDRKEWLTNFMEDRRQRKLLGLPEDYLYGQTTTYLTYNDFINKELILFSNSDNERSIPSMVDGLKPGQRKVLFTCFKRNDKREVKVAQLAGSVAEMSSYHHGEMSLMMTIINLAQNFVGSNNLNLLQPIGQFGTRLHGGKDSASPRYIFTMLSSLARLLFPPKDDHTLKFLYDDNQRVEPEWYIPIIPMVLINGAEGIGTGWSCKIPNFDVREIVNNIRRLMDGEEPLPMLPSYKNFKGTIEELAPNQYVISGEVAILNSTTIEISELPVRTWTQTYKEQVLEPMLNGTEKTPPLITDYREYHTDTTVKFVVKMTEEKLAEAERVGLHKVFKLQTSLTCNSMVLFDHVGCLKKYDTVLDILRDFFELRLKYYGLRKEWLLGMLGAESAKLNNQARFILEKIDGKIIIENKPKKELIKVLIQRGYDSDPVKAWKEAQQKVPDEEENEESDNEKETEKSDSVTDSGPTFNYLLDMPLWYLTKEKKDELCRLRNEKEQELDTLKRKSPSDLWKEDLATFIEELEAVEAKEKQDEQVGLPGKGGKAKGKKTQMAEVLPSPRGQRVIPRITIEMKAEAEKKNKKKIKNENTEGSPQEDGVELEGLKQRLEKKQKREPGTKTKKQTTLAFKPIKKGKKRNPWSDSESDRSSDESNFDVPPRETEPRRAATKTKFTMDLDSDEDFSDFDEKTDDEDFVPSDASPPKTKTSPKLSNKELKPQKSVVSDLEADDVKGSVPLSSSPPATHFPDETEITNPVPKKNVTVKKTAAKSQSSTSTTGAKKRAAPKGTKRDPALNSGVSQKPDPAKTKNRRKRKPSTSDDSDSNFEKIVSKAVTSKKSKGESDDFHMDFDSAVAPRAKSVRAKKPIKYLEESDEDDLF

Turning to `COc1ccc2nccc(/C=C/[C@H]3OC[C@H](NCc4ccc5c(c4)OCCO5)CO3)c2c1` [AB-0010, N-((2,3-dihydrobenzo[b][1,4]dioxin-6-yl)methyl)-2-((E)-2-(6-methoxyquinolin-4-yl)vinyl)-trans-1,3-dioxan-5-amine], the MIC in the test with USA 300 strain of MRSA and against S. aureus ATCC 29213 was 1 µg/mL (≈ 2.3 µM) each time. In addition, the “MIC 29213” value in the test on S. aureus ATCC 29213 (S. aureus ATCC 29213) stood at 2 µg/mL (≈ 4.6 µM).

As to `COc1ccc2nccc(CC[C@H]3OC[C@H](NCc4ccc(C(F)F)cc4)CO3)c2c1` [AB-0085, N-(4-(difluoromethyl)benzyl)-2-(2-(6-methoxyquinolin-4-yl)ethyl)-trans-1,3-dioxan-5-amine], the figures for the MIC in the test with USA 300 strain of MRSA and with S. aureus ATCC 29213 were 4 µg/mL (≈ 9.34 µM) and 2 µg/mL (≈ 4.67 µM), respectively.

With `COc1ccc2nccc(CC[C@H]3OC[C@H](NCc4ccc5c(c4)OCO5)CO3)c2c1` [AB-0079, N-(benzo[d][1,3]dioxol-5-ylmethyl)-2-(2-(6-methoxyquinolin-4-yl)ethyl)-trans-1,3-dioxan-5-amine], the MIC with USA 300 strain of MRSA is 4 µg/mL (≈ 9.47 µM); in the test on S. aureus ATCC 29213, 2 µg/mL (≈ 4.73 µM).

As for `COc1ccc2ncc(F)c(C(O)C[C@H]3OC[C@H](NCc4cc5c(cn4)OCCO5)CO3)c2n1` (stereo partly drawn) [AB-0083, 2-(5-(((2,3-dihydro-[1,4]dioxino[2,3-c]pyridin-7-yl)methyl)amino)-trans-1,3-dioxan-2-yl)-1-(3-fluoro-6-methoxy-1,5-naphthyridin-4-yl)ethanol], the MIC in the test on USA 300 strain of MRSA was 1 µg/mL (≈ 2.12 µM); against S. aureus ATCC 29213, 0.5 µg/mL (≈ 1.06 µM).

For the compound `COc1ccc2nccc(CC[C@H]3OC[C@H](NCc4ccc5c(c4)OC(F)(F)O5)CO3)c2c1` [AB-0080, N-((2,2-difluorobenzo[d][1,3]dioxol-5-yl)methyl)-2-(2-(6-methoxyquinolin-4-yl)ethyl)-trans-1,3-dioxan-5-amine], the figures for the MIC in the test with USA 300 strain of MRSA and against S. aureus ATCC 29213 were 2 µg/mL (≈ 4.36 µM) and 1 µg/mL (≈ 2.18 µM), respectively.

Regarding `COc1ccc2ncc(F)c(CC[C@H]3OC[C@H](NCc4ccc(Cl)c(Cl)c4)CO3)c2n1` [AB-0017, N-(3,4-dichlorobenzyl)-2-(2-(3-fluoro-6-methoxy-1,5-naphthyridin-4-yl)ethyl)-trans-1,3-dioxan-5-amine], the MIC in the test with USA 300 strain of MRSA is 0.125 µg/mL (≈ 0.268 µM); against S. aureus ATCC 29213 it was 0.25 µg/mL (≈ 0.536 µM).

With `COc1ccc2ncc(=O)n(CC(O)[C@H]3OC[C@H](NCc4cc5c(cn4)OCCO5)CO3)c2c1` (stereo partly drawn) [AB-0077, 1-(2-(5-(((2,3-dihydro-[1,4]dioxino[2,3-c]pyridin-7-yl)methyl)amino)-trans-1,3-dioxan-2-yl)-2-hydroxyethyl)-7-methoxyquinoxalin-2(1H)-one], the MIC in the test on USA 300 strain of MRSA was found to be 2 µg/mL (≈ 4.25 µM); against S. aureus ATCC 29213, 1 µg/mL (≈ 2.13 µM).

Consider `COc1ccc2nccc(CC[C@H]3OC[C@H](NCc4ccc(C)cc4)CO3)c2c1` [AB-0044], for which the minimum inhibitory concentration (MIC) with USA 300 strain of MRSA and against S. aureus ATCC 29213 was 1 µg/mL (≈ 2.55 µM) in each case.

`COc1ccc2nccc(CC[C@H]3OC[C@H](NCc4ccc(OC(F)(F)F)cc4)CO3)c2c1` [AB-0081, 2-(2-(6-methoxyquinolin-4-yl)ethyl)-N-(4-(trifluoromethoxy)benzyl)-trans-1,3-dioxan-5-amine]: the MIC with USA 300 strain of MRSA was 4 µg/mL (≈ 8.65 µM); with S. aureus ATCC 29213, 2 µg/mL (≈ 4.32 µM).

On to `COc1ccc2nccc(CC[C@H]3OC[C@H](NCc4ccc(C(C)(C)C)cc4)CO3)c2c1` [AB-0082, N-(4-(tert-butyl)benzyl)-2-(2-(6-methoxyquinolin-4-yl)ethyl)-trans-1,3-dioxan-5-amine], for which the MIC in the test on USA 300 strain of MRSA was found to be 4 µg/mL (≈ 9.2 µM); in the test on S. aureus ATCC 29213, 2 µg/mL (≈ 4.6 µM).

Take `COc1ccc2ncc(F)c(C(O)C[C@H]3OC[C@H](NCc4cc5c(cn4)OCCO5)CO3)c2c1` (some centres unmarked) [AB-0046]: the pIC50 in test [1] was 6.22. In addition, the MIC in the test on USA 300 strain of MRSA was found to be 1 µg/mL (≈ 2.12 µM); in the test on S. aureus ATCC 29213, 0.5 µg/mL (≈ 1.06 µM). Moreover, the remaining activity at 100 µM on human topo II stood at 88.3%.

`COc1ccc2ncc(=O)n(CC(O)[C@H]3OC[C@H](NCc4ccc5c(c4)OCCO5)CO3)c2c1` (stereo partly drawn) [AB-0076, 1-(2-(5-(((2,3-dihydrobenzo[b][1,4]dioxin-6-yl)methyl)amino)-trans-1,3-dioxan-2-yl)-2-hydroxyethyl)-7-methoxyquinoxalin-2(1H)-one]: the MIC with USA 300 strain of MRSA stood at 1 µg/mL (≈ 2.13 µM).

Regarding `COc1ccc2nccc(/C=C/[C@H]3OC[C@H](NCc4ccc(Cl)c(Cl)c4)CO3)c2c1` [AB-0009, N-(3,4-dichlorobenzyl)2-((E)-2-(6-methoxyquinolin-4-yl)vinyl)-trans-1,3-dioxan-5-amine], the MIC in the test with USA 300 strain of MRSA was 0.5 µg/mL (≈ 1.12 µM); against S. aureus ATCC 29213 it was at most 0.25 µg/mL.

The compound `COc1ccc2nccc(CC[C@H]3OC[C@H](NCc4cc(F)ccc4F)CO3)c2c1` [AB-0022, N-(2,5-difluorobenzyl)-2-(2-(6-methoxyquinolin-4-yl)ethyl)-trans-1,3-dioxan-5-amine] registered an MIC in the test on S. aureus ATCC 29213 of 64 µg/mL (≈ 154 µM).

For the compound `COc1ccc2nccc(CC[C@H]3OC[C@H](NCc4ccc(C(F)(F)F)cc4)CO3)c2c1` [AB-0071, 2-(2-(6-methoxyquinolin-4-yl)ethyl)-N-(4-(trifluoromethyl)benzyl)-trans-1,3-dioxan-5-amine], the MIC in the test with USA 300 strain of MRSA was 2 µg/mL (≈ 4.48 µM); in the test on S. aureus ATCC 29213, 1 µg/mL (≈ 2.24 µM).

Consider `COc1ccc2nccc(CC[C@H]3OC[C@H](NC(=O)c4ccc5c(c4)OCCO5)CO3)c2c1` [AB-0088, N-(2-(2-(6-methoxyquinolin-4-yl)ethyl)-trans-1,3-dioxan-5-yl)-2,3-dihydrobenzo[b][1,4]dioxine-6-carboxamide], for which, in the test with S. aureus ATCC 29213, the MIC is 8 µg/mL (≈ 17.8 µM).

On to `COc1cccc(CN[C@H]2CO[C@H](CCc3ccnc4ccc(OC)cc34)OC2)c1` [AB-0034, N-(3-methoxybenzyl)-2-(2-(6-methoxyquinolin-4-yl)ethyl)-trans-1,3-dioxan-5-amine], for which the lowest concentration to inhibit growth with S. aureus ATCC 29213 (MIC) was 16 µg/mL (≈ 39.2 µM).

For the compound `COc1ccc2nccc(CC[C@H]3OC[C@H](NCc4ccc(F)c(F)c4)CO3)c2c1` [AB-0024, N-(3,4-difluorobenzyl)-2-(2-(6-methoxyquinolin-4-yl)ethyl)-trans-1,3-dioxan-5-amine], in the test on S. aureus ATCC 29213, the MIC was found to be 64 µg/mL (≈ 154 µM).

`COc1ccc2ncc(F)c(C(O)C[C@H]3OC[C@H](NCc4ccc(Cl)c(Cl)c4)CO3)c2c1` (stereo partly drawn) [AB-0019, 2-(5-((3,4-dichlorobenzyl)amino)-trans-1,3-dioxan-2-yl)-1-(3-fluoro-6-methoxyquinolin-4-yl)ethan-1-ol]: the MIC with USA 300 strain of MRSA was 0.5 µg/mL (≈ 1.04 µM); against S. aureus ATCC 29213, at most 0.25 µg/mL.

As to `COc1ccc2nccc(CC[C@H]3OC[C@H](NCc4cccc(Cl)c4)CO3)c2c1` [AB-0037, N-(3-chlorobenzyl)-2-(2-(6-methoxyquinolin-4-yl)ethyl)-trans-1,3-dioxan-5-amine], the lowest concentration to inhibit growth in the test with S. aureus ATCC 29213 (MIC) was 32 µg/mL (≈ 77.5 µM).

As for `COc1ccc2nccc(CC[C@H]3OC[C@H](NCCc4ccccc4)CO3)c2c1` [AB-0045, 2-(2-(6-methoxyquinolin-4-yl)ethyl)-N-phenethyl-trans-1,3-dioxan-5-amine], 64 µg/mL (≈ 163 µM) was the least that counted as inhibitory in the test on S. aureus ATCC 29213 (MIC).
